# Several values for one entry are separate records, joined by “and”; a condition that tells them apart may be missing. Equal values may be shown once. Read-outs that look alike come from different tables or passages of the source.
# Legend:
# [1] = system: S. aureus TISTR 517; assay: SEM of treated cells (morphological changes); format: cell-based, Staphylococcus aureus; details: 1× MIC, 18 h incubation, 20,000× magnification
# Procedure: (§1) The treatment effect of NNS4-3 AMP on tested bacterial cells was investigated by observing morphological changes under SEM. S. aureus TISTR 517 and MRSA strain 2468 were precultured in MH broth for 18 h before being centrifuged to harvest the cell pellet. Cell pellets of both strains were washed with 0.85% sterile NaCl solution 3 times to remove exopolysaccharide. The washed cells were then dispersed in CAMHB to adjust cell turbidity to 0.1 OD at 625 nm. The prepared cells were diluted to 5 × 10^5 CFU/mL with CAMHB before being treated with NNS4-3 AMP. […] The sample for SEM micrography was prepared by fixing the bacterial sample in 2.5% glutaraldehyde in 0.1 M phosphate buffer pH 7.2 for 24 h before ethanol dehydration of the sample. The complete ethanol removal from the prepared sample was conducted by a critical point drying machine (Quorum Technologies Ltd., Lewes, East Sussex, UK).
# [2] = system: MRSA strain 2468; assay: SEM of treated cells (morphological changes); format: cell-based, Staphylococcus aureus; details: 1× MIC, 18 h incubation, 20,000× magnification
# Procedure: as §1
# [3] = Surfactant stability (residual antibacterial activity); format: physicochemical; details: AMP 10 µg/mL, agar well diffusion vs MRSA strain 2468, relative to non-treated sample, mean ± SD, triplicate
# Procedure: (§3) The AMP was dissolved in sterile purified water and adjusted to a final concentration of 10 µg/mL. The sensitivity of the AMP to temperatures of 60, 80, and 100 °C as well as autoclaving at 121 °C for 15 and 30 min was evaluated. The sensitivity of the AMP to proteolytic enzymes with different digesting characteristics was studied by incubating with a concentration of 1 mg/mL of proteinase K, trypsin, and α-chymotrypsin (Sigma-Aldrich, Warren, MI, USA). Surfactant compatibility of the AMP was examined by exposing the sample to 1% SDS and 1% Triton X-100 (AppliChem GmbH, Darmstadt, Germany). The propensity of the AMP for acid and base hydrolysis was examined by adjusting the pH of the solution to 1.2, 4.5, 6.8, and 7.4. After incubation, the pH of the AMP solution was neutralized to 7.4 before being assessed for antimicrobial activity. Following all treatments, the antibacterial assay using agar well diffusion against the MRSA strain 2468 was conducted in triplicate. The stability profiles are presented as the percentage of the activity relative to the untreated conditions (mean ± SD) and statistical significance was determined by the Student’s t-test at a p-value < 0.05.
# [4] = system: MRSA strain 2468; assay: Time-kill kinetics; format: cell-based, Staphylococcus aureus; details: 4× MIC; CAMHB, 37 °C
# Procedure: S. aureus TISTR 517 and MRSA strain 2468 were adjusted to a cell density of 5 × 10^5 CFU/mL with CAMHB for the initial treatment. […] The reactions were conducted at 37 °C, followed by spreading the total volume onto MH agar at specific time intervals (0–24 h). Subsequently, the spread plates were incubated at 37 °C for 24 h before counting the colonies. The bacterial reduction trends were presented with a log10 scale of viable cells (logCFU/mL) versus treatment duration. The bacterial cell reduction was determined within 24 h. Each experiment was conducted in triplicate on the 96-well plates. The presence of significant differences (p-value < 0.05) was assessed by two-way ANOVA, followed by the post hoc Tukey’s test for conducting multiple comparisons between treated and non-treated samples at each time interval.
# [5] = Thermal stability (residual antibacterial activity); format: physicochemical; details: AMP 10 µg/mL in purified water, agar well diffusion vs MRSA strain 2468, relative to non-treated sample, mean ± SD, triplicate
# Procedure: as §3
# [6] = biological target: T1, Proteinase K (Parengyodontium album, UniProt P06873); assay: Proteolytic enzyme stability (residual antibacterial activity); format: in vitro ADME; details: Proteinase K 1 mg/mL, AMP 10 µg/mL, agar well diffusion vs MRSA strain 2468, relative to non-treated sample, mean ± SD, triplicate
# T1 construct: purchased Sigma-Aldrich
# T1 sequence (P06873 106-384): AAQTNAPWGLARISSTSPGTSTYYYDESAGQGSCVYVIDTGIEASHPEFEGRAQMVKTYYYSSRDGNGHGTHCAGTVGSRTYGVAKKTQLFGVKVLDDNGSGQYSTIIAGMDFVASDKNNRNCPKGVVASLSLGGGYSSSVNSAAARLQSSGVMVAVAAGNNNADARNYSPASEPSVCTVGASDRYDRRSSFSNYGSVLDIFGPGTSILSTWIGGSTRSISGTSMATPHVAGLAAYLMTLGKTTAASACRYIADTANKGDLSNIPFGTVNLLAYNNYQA
# Procedure: as §3
# [7] = system: Trypsin; details: Trypsin 1 mg/mL, AMP 10 µg/mL, agar well diffusion vs MRSA strain 2468, relative to non-treated sample, mean ± SD, triplicate
# Procedure: as §3
# [8] = system: MRSA strain 142; assay: microbe, parasite or virus in culture; format: cell-based, Staphylococcus aureus; details: strain 142, 24 h
# Procedure: (§2) The MIC and MBC of the purified peptide of NNS4-3 were determined against various strains of S. aureus. The broth microdilution method followed the guidance provided by the Clinical and Laboratory Standards Institute (CLSI). Pathogenic bacteria, such as S. aureus TISTR 517 and MRSA strains 142, 1096, and 2468, were used as test strains and cultured on MH agar at 37 °C for 18 h. A single colony of each tested bacterium was suspended in 0.85% NaCl until its turbidity reached an OD of 0.1 at 625 nm (1 × 10^8 CFU/mL). The bacterial cells were diluted to 5 × 10^6 CFU/mL using cation-adjusted Mueller Hinton broth (CAMHB). The diluted cell suspension (10 µL) was transferred to each well of a 96-well plate. With a total volume of 100 µL in each well, the purified AMP was added to each well to obtain final concentrations between 0.125 and 64 µg/mL. Standard antibiotics (vancomycin and cefoxitin) and antibiotic-free samples were used as positive and negative controls, respectively. The 96-well plate was incubated at 37 °C for 24 h. The experiment was carried out in triplicate for each strain. […] Subsequently, 100 µL of each dilution was spread on MH agar and then incubated at 37 °C for 24 h. The MBC was identified as the lowest concentration at which no bacterial colony growth was observed on the plate.
# [9] = system: S. aureus TISTR 517; assay: microbe, parasite or virus in culture; format: cell-based, Staphylococcus aureus; details: TISTR 517, 24 h
# Procedure: as §2
# [10] = system: MRSA strain 1096; assay: microbe, parasite or virus in culture; format: cell-based, Staphylococcus aureus; details: strain 1096, 24 h
# Procedure: as §2
# [11] = system: MRSA strain 2468; assay: microbe, parasite or virus in culture; format: cell-based, Staphylococcus aureus; details: strain 2468, 24 h
# Procedure: as §2
# [12] = Effect of pH on the stability (residual antibacterial activity); format: physicochemical; details: AMP 10 µg/mL, mean ± SD, triplicate
# Procedure: as §3
smiles,measurement,setting,value
"CC(C)CC(NC(=O)C(N)CCCCN)C(=O)NC(CC(C)C)C(=O)NC(CCCCN)C(=O)NC(CC(=O)O)C(=O)NC(CC(C)C)C(=O)NC(Cc1ccccc1)C(=O)NC(Cc1c[nH]cn1)C(=O)NC(CC(=O)O)C(=O)NC(CC(N)=O)C(=O)O (single isomer, unassigned) [NNS4-3 AMP]",morphological changes under SEM,[1],cellular lysis
same,morphological changes under SEM,[2],membrane disruption and pore formation
same,% Residual Activity,"[3]; 1% SDS, 1 h",87.00 ± 6.17 %
same,% Residual Activity,"[3]; 1% SDS, 6 h",86.69 ± 5.39 %
same,% Residual Activity,"[3]; 1% SDS, 12 h",86.25 ± 4.76 %
same,% Residual Activity,"[3]; 1% Triton X-100, 1 h",104.54 ± 4.96%
same,% Residual Activity,"[3]; 1% Triton X-100, 12 h",103.40 ± 3.82%
same,time of treatment to complete elimination of viable cells,[4],≤ 8 h
same,% Residual Activity,"[5]; 37 °C, 1 h",103.19 ± 3.68%
same,% Residual Activity,"[5]; 37 °C, 6 h",100.00 ± 0.00%
same,% Residual Activity,"[5]; 37 °C, 12 h",99.61 ± 6.44%
same,% Residual Activity,"[5]; 60 °C, 1 h",101.82 ± 2.46%
same,% Residual Activity,"[5]; 60 °C, 6 h",95.27 ± 4.31%
same,% Residual Activity,"[5]; 60 °C, 12 h",90.47 ± 2.98 %
same,% Residual Activity,"[5]; 80 °C, 1 h",97.52 ± 6.21%
same,% Residual Activity,"[5]; 80 °C, 6 h",41.13 ± 35.62 %
same,% Residual Activity,"[5]; 100 °C, 1 h",73.05 ± 1.57 %
same,% Residual Activity,"[5]; 100 °C, 6 h",0.00 ± 0.00 %
same,% Residual Activity,"[5]; 100 °C, 12 h",0.00 ± 0.00 %
same,% Residual Activity,"[5]; autoclaving 121 °C, 15 psi, 15 min",61% and 61.83 ± 0.74 %
same,% Residual Activity,"[5]; autoclaving 121 °C, 15 psi, 30 min",0.00 ± 0.00 %
same,% Residual Activity,[6]; 1 h,98.66 ± 1.68%
same,% Residual Activity,[6]; 6 h,99.19 ± 1.07%
same,% Residual Activity,[6]; 12 h,99.07 ± 3.08%
same,% Residual Activity,[7]; 1 h,95.57 ± 4.01%
same,% Residual Activity,[7]; 6 h,95.66 ± 2.62%
same,% Residual Activity,[7]; 12 h,93.81 ± 3.31%
same,MBC,[8],4 µg/mL
same,MIC,[8],1 µg/mL
same,MBC,[9],64 µg/mL
same,MIC,[9],16 µg/mL
same,MBC,[10],4 µg/mL
same,MIC,[10],1 µg/mL
same,MBC,[11],4 µg/mL
same,MIC,[11],1 µg/mL
same,% Residual Activity,"[12]; pH 1.2, 1 h, neutralized to pH 7.4 before agar well diffusion vs MRSA strain 2468, relative to non-treated sample",98.12 ± 2.14%
same,% Residual Activity,"[12]; pH 1.2, 6 h, neutralized to pH 7.4 before agar well diffusion vs MRSA strain 2468, relative to non-treated sample",95.45 ± 0.79%
same,% Residual Activity,"[12]; pH 1.2, 12 h, neutralized to pH 7.4 before agar well diffusion vs MRSA strain 2468, relative to non-treated sample",94.14 ± 3.12%
same,% Residual Activity,"[12]; pH 4.5, 1 h, neutralized to pH 7.4 before agar well diffusion vs MRSA strain 2468, relative to non-treated sample",95.24 ± 3.29%
same,% Residual Activity,"[12]; pH 4.5, 6 h, neutralized to pH 7.4 before agar well diffusion vs MRSA strain 2468, relative to non-treated sample",99.64 ± 2.87%
same,% Residual Activity,"[12]; pH 4.5, 12 h, neutralized to pH 7.4 before agar well diffusion vs MRSA strain 2468, relative to non-treated sample",96.91 ± 2.99%
same,% Residual Activity,"[12]; pH 6.8, 1 h, neutralized to pH 7.4 before agar well diffusion vs MRSA strain 2468, relative to non-treated sample",98.87 ± 2.00%
same,% Residual Activity,"[12]; pH 6.8, 6 h, neutralized to pH 7.4 before agar well diffusion vs MRSA strain 2468, relative to non-treated sample",95.89 ± 5.00%
same,% Residual Activity,"[12]; pH 6.8, 12 h, neutralized to pH 7.4 before agar well diffusion vs MRSA strain 2468, relative to non-treated sample",92.54 ± 4.14%
same,% Residual Activity,"[12]; pH 7.4, 1 h, agar well diffusion vs MRSA strain 2468, relative to non-treated sample",97.80 ± 1.32%
same,% Residual Activity,"[12]; pH 7.4, 6 h, agar well diffusion vs MRSA strain 2468, relative to non-treated sample",94.82 ± 2.80%
same,% Residual Activity,"[12]; pH 7.4, 12 h, agar well diffusion vs MRSA strain 2468, relative to non-treated sample",93.29 ± 1.89%

# From paper PMC11350868, “A Novel Bacitracin-like Peptide from Mangrove-Isolated Bacillus paralicheniformis NNS4-3 against MRSA and Its Genomic Insights” (Antibiotics, 2024)
